# Patent US20230159511A1, “TETRAHYDROISOQUINOLINE COMPOUNDS AS NRF2 ACTIVATORS” (C4X Discovery Limited, priority 2020, published 2023)
# Assays:
# [1] = biological target: T1, human KEAP1 (N-term, residues 321-609) (Homo sapiens, UniProt Q14145); assay: KEAP1 Kelch Fluorescence Polarization (FP) Assay; format: binding; conditions: inhibition of Kelch domain-NRF2 interaction; 2 nM FITC-labelled NRF2 peptide, 25 nM KEAP1, 1 h room temperature; compounds below 10 nM cannot be differentiated
# T1 construct: human KEAP1 (N-term, residues 321-609)
# Procedure, shortened: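 FP competition: 2 nM FITC-NRF2 peptide (LDEETGEFL) with 25 nM KEAP1 Kelch domain, pH 8.0 Tris buffer, 0.5% DMSO, 1 h at room temperature; 12-point 1:3 dilutions from 10 μM.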
# [2] = tested on: NRF2 mediated gene NAD(P)H:quinone acceptor oxidoreductase 1 (NQO1) in BEAS-2B cells; assay: Beas2B NQO1 mRNA Cell Based Assay; parameters: species or system human; conditions: Homo sapiens; BEAS-2B cells, compound for 24 h; increase in NQO1 mRNA compared to vehicle (0.1% DMSO) control; read-out: EC50
# Procedure, shortened: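 BEAS-2B cells treated 24 h with compound; NQO1 mRNA measured by one-step TaqMan RT-PCR on crude lysates, normalised to beta actin by ΔΔCT. Fold increase over 0.1% DMSO vehicle; EC50 from four-parameter logistic fit.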
# T1 sequence (Q14145 321-609): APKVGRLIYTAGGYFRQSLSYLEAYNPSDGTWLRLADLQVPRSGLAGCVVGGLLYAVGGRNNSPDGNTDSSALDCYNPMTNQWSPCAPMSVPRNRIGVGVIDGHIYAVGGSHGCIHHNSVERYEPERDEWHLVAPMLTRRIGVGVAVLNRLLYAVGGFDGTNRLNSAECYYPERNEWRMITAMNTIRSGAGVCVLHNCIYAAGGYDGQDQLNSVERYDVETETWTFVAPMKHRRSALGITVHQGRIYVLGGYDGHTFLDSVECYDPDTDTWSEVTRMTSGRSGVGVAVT
IC50 [1],Compound,EC50 [2]
41 nM,"CNC(=O)[C@H]1CCCC[C@H]1C(=O)N1CCc2c(Cl)ccc(OCc3cncnc3)c2[C@H]1CN1CCCC1=O [Example 64, (1S,2R)-2-((S)-5-chloro-1-((2-oxopyrrolidin-1-yl)methyl)-8-(pyrimidin-5-ylmethoxy)-1,2,3,4-tetrahydroisoquinoline-2-carbonyl)-N-methylcyclohexane-1-carboxamide]",5750 nM
9.4 nM,"CNC(=O)[C@H]1CCCC[C@H]1C(=O)N1CCc2c(Cl)ccc(OCc3nnc4ccccn34)c2[C@H]1CN1CCCC1=O [Example 73, (1S,2R)-2-((S)-8-([1,2,4]triazolo[4,3-a]pyridin-3-ylmethoxy)-5-chloro-1-((2-oxopyrrolidin-1-yl)methyl)-1,2,3,4-tetrahydroisoquinoline-2-carbonyl)-N-methylcyclohexane-1-carboxamide]",288 nM
13 nM,"CNC(=O)[C@@]1(C)CCC[C@H]1C(=O)N1CCc2c(Cl)ccc(OCc3nnn(C)c3C(F)F)c2[C@H]1CN1CC2(CC2)CC1=O [Example 94, (1S,2R)-2-((S)-5-chloro-8-((5-(difluoromethyl)-1-methyl-1H-1,2,3-triazol-4-yl)methoxy)-1-((6-oxo-5-azaspiro[2.4]heptan-5-yl)methyl)-1,2,3,4-tetrahydroisoquinoline-2-carbonyl)-N,1-dimethylcyclopentane-1-carboxamide]",148 nM
10.9 nM,"CNC(=O)[C@@]1(C)CCCC[C@H]1C(=O)N1CCc2c(Cl)ccc(OCc3nnn(C)c3C3CC3)c2[C@H]1CN1C[C@H](C)CC1=O [Example 113, (1S,2R)-2-((S)-5-chloro-8-((5-cyclopropyl-1-methyl-1H-1,2,3-triazol-4-yl)methoxy)-1-(((R)-4-methyl-2-oxopyrrolidin-1-yl)methyl)-1,2,3,4-tetrahydroisoquinoline-2-carbonyl)-N,1-dimethylcyclohexane-1-carboxamide]",299 nM
47 nM,"CCNC(=O)[C@H]1CCCC[C@H]1C(=O)N1CCc2c(Cl)ccc(OCc3noc4ccccc34)c2[C@H]1CN1CCCC1=O [Example 53, (1S,2R)-2-((S)-8-(benzo[d]isoxazol-3-ylmethoxy)-5-chloro-1-((2-oxopyrrolidin-1-yl)methyl)-1,2,3,4-tetrahydroisoquinoline-2-carbonyl)-N-ethylcyclohexane-1-carboxamide]",189 nM
28 nM,"CNC(=O)[C@H]1CCCC[C@H]1C(=O)N1CCc2cccc(O[C@H]3CCN(C(=O)c4cncs4)C3)c2[C@H]1CN1C(=O)c2ccccc2C1=O [Example 17, (1S,2R)-2-((S)-1-((1,3-dioxoisoindolin-2-yl)methyl)-8-(((S)-1-(thiazole-5-carbonyl)pyrrolidin-3-yl)oxy)-1,2,3,4-tetrahydroisoquinoline-2-carbonyl)-N-methylcyclohexane-1-carboxamide]",3070 nM
112 nM,"CNC(=O)[C@H]1CCCC[C@H]1C(=O)N1CCc2c(Cl)ccc(OCc3noc(C(C)C)n3)c2[C@H]1CN1CCCC1=O [Example 57, (1S,2R)-2-((S)-5-chloro-8-((5-isopropyl-1,2,4-oxadiazol-3-yl)methoxy)-1-((2-oxopyrrolidin-1-yl)methyl)-1,2,3,4-tetrahydroisoquinoline-2-carbonyl)-N-methylcyclohexane-1-carboxamide]",4000 nM
23 nM,"CNC(=O)[C@@]1(C)CCC[C@H]1C(=O)N1CCc2c(Cl)ccc(OCc3nnn(C)c3C(F)F)c2[C@H]1CN1CCC(C)C1=O (single isomer, unassigned) [Example 95]",565 nM
18 nM,"CNC(=O)C1CCCC1C(=O)N1CCc2c(Cl)ccc(OCc3nnn(C)c3C(F)F)c2[C@H]1CN1CCCC1=O (single isomer, unassigned) [Example 65]",1860 nM
723 nM,"CNC(=O)[C@H]1CCCC[C@H]1C(=O)N1CCc2c(Cl)ccc(OCc3nn(C)c4ccccc34)c2[C@H]1CN1CCCC1=O [Example 81, (1S,2R)-2-((S)-5-chloro-8-((1-methyl-1H-indazol-3-yl)methoxy)-1-((2-oxopyrrolidin-1-yl)methyl)-1,2,3,4-tetrahydroisoquinoline-2-carbonyl)-N-methylcyclohexane-1-carboxamide]",> 10000 nM
36 nM,"O=C(NCC(F)(F)CO)[C@H]1CCCC[C@H]1C(=O)N1CCc2cccc(O[C@H]3CCN(C(=O)c4cncs4)C3)c2[C@H]1CN1C(=O)c2ccccc2C1=O [Example 34, (1S,2R)-N-(2,2-difluoro-3-hydroxypropyl)-2-((S)-1-((1,3-dioxoisoindolin-2-yl)methyl)-8-(((S)-1-(thiazole-5-carbonyl)pyrrolidin-3-yl)oxy)-1,2,3,4-tetrahydroisoquinoline-2-carbonyl)cyclohexane-1-carboxamide]",193 nM
151 nM,"CNC(=O)[C@H]1CCCC[C@H]1C(=O)N1CCc2c(Cl)ccc(OCCc3cn(C)nn3)c2[C@H]1CN1CCCC1=O [Example 66, (1S,2R)-2-((S)-5-chloro-8-(2-(1-methyl-1H-1,2,3-triazol-4-yl)ethoxy)-1-((2-oxopyrrolidin-1-yl)methyl)-1,2,3,4-tetrahydroisoquinoline-2-carbonyl)-N-methylcyclohexane-1-carboxamide]",5660 nM
